Reference: US20250002450A1, “CATIONIC STEROID COMPOUNDS, METHOD OF OBTAINING THEREOF, FORMULATIONS COMPRISING THEREOF AND THEIR USES” (UNIVERSIDADE DO PORTO, priority 2021, published 2025)
Converted amounts (≈) assume the structure as drawn. Where two headings read alike, the source gives them in different places.

How the values were obtained:
Test in all cases: Antifungal MIC/MLC (broth microdilution)
Format in all cases: cell-based
A. flavus F44 = tested on: A. flavus F44
Procedure: (§1) The antifungal activity of compound 1 was evaluated for a wide range of fungal species, covering yeasts and filamentous fungi, including dermatophytes. […] This antimicrobial effect was fungicidal, with minimal lethal concentrations (MLC) being equal to, or one or two-fold higher than the respective MIC. Twenty-three fungal strains were used in this study, including reference strains and clinical isolates of yeasts and filamentous fungi. Yeast strains included reference strains (ATCC—American Type Culture Collection and CECT—Colección Española de Cultivos Tipo) and clinical isolates: C. albicans ATCC 10231, Candida krusei ATCC 6258, C. albicans H37, C. albicans FF172, C. albicans FF176, C. albicans DSY294, C. albicans DSY296, C. glabrata DSY562, C. glabrata DSY565 and Cryptococcus neoformans CECT 1078. Filamentous fungi included Aspergillus fumigatus ATCC 240305, A. fumigatus C111, A. niger ATCC 16404, A. flavus F44, Fusarium solani FF125, F. oxysporum FF115, and dermatophytes Trichophyton rubrum FF5, T. mentagrophytes FF7, Microscoporum canis FF1 and Nannizzia gypsea FF3 (formerly Microsporum gypseum) and a species of genera Mucor, Lichetheimia and Scedosporium. Saprolegnia parasitica CBS 223.65, a reference strain of an oomycete fish pathogen, was also included. All microorganisms were kept in Sabouraud Dextrose Broth (SDB: BioMérieux, Marcy L'Etoile, France) plus glycerol (20%) at −80° C. The strains were kept in Sabouraud Dextrose Agar (SDA: BioMérieux, Marcy L'Etoile, France) slants and were sub-cultured in SDA before each test. S. parasitica was kept in Corn Meal Agar plates (CMA: BBL™ Corn Meal Agar, BD, Le Pont-de-Claix, France) and was sub-cultured in CMA before each experiment. C. albicans H37, was kindly provided by Cidilia Pina Vaz (CHSJ, Porto, Portugal) and C. albicans DSY294, C. albicans DSY296, C. glabrata DSY562, C. glabrata DSY565 were kindly provided by D. Sanglard (University of Lausanne, Switzerland). A stock solution of compound 1 (10 mg/mL), was prepared in dimethyl sulfoxide (DMSO 99%: Alfa Aesar, Kandel, Germany), kept at −20 degrees C., and freshly diluted in the appropriate culture media before each assay. In all experiments, in-test concentrations of DMSO were kept below 2%. Fluconazole (Alfa Aesar, Ward Hill, MA, USA) was tested as commercial antifungal.
(§2) Antifungal activity was evaluated by determining the MIC of compound 1 by the broth microdilution method, according to CLSI guidelines (reference documents M27-A3 for yeasts and M38-A2 for filamentous fungi). Briefly, cell or spore suspensions were prepared in RPMI-1640 broth medium (Biochrom, Berlin, Germany) buffered with 3-(N-morpholino)propane sulfonic acid (MOPS) (Sigma-Aldrich, St. Louis, MO, USA) (henceforth referred to as RPMI) from fresh cultures of the different strains of fungi. For yeasts, the inoculum was adjusted to 0.5-2.5×10^3 CFU/mL. For filamentous fungi, the inoculum was adjusted to 1-3×10^3 CFU/mL for dermatophytes, and 0.4-5×10^4 CFU/mL for all other strains. […] Sterility and growth controls were included in each assay. The 96-well flat-bottomed untreated polystyrene microtiter plates which were incubated for 48 h at 35° C., with the exception of Lichetheimia spp. which was incubated at 25° C. for 48 h, and the dermatophyte strains, which incubated for 5-7 days at 25° C. […] Voriconazole (kindly provided by Pfizer Ldt., UK) MIC for C. krusei ATCC 6258 was used as quality control and the assays were validated when the results obtained were within the recommended limits. The minimal lethal concentration (MLC) was determined by spreading 20 μL of culture collected from wells showing no visible growth on SDA plates. The MLC was determined as the lowest concentration showing complete growth inhibition after 48 h at 35 degrees C., 48 h at 25 degrees C. (Lichetheimia spp.) or 5-7 days at 25 degrees C. (dermatophytes). At least two independent assays were performed for all tested strains.

A. niger ATCC 16404 = tested on: A. niger ATCC 16404
Procedure: as §1, §2

[1] = tested on: Aspergillus fumigatus ATCC 204305
Procedure: as §1, §2

C. glabrata DSY562 = tested on: C. glabrata DSY562
Procedure: as §1, §2

C. glabrata DSY565 = tested on: C. glabrata DSY565
Procedure: as §1, §2

[2] = tested on: Cryptococcus neoformans CECT 1078
Procedure: as §1, §2

Fusarium oxysporum FF115 = tested on: Fusarium oxysporum FF115
Procedure: as §1, §2

Fusarium solani FF125 = tested on: Fusarium solani FF125
Procedure: as §1, §2

Lichtheimia spp. = tested on: Lichtheimia spp.
Procedure: as §1, §2

Mucor spp. = tested on: Mucor spp.
Procedure: as §1, §2

Scedosporium spp. = tested on: Scedosporium spp.
Procedure: as §1, §2

T. mentagrophytes FF7 = tested on: T. mentagrophytes FF7
Procedure: as §1, §2

[3] = A. flavus F44, intrinsically resistant to fluconazole
[4] = A. niger ATCC 16404, intrinsically resistant to fluconazole
[5] = Aspergillus fumigatus ATCC 204305, intrinsically resistant to fluconazole
[6] = C. glabrata DSY565, resistant to fluconazole or azoles
[7] = Fusarium oxysporum FF115, intrinsically resistant to fluconazole
[8] = Fusarium solani FF125, intrinsically resistant to fluconazole
[9] = Lichtheimia spp., intrinsically resistant to fluconazole
[10] = Mucor spp., intrinsically resistant to fluconazole

Row | SMILES | MLC (A. flavus F44; [3]) | MLC (A. niger ATCC 16404; [4]) | MLC [1, 5] | MLC (C. glabrata DSY562) | MLC (C. glabrata DSY565; [6]) | MLC [2] | MLC (Fusarium oxysporum FF115; [7]) | MLC (Fusarium solani FF125; [8]) | MLC (Lichtheimia spp.; [9]) | MLC (Mucor spp.; [10]) | MLC (Scedosporium spp.) | MLC (T. mentagrophytes FF7) | also measured
1 | C[C@H](CCC(=O)NCCN)[C@H]1CC[C@H]2[C@@H]3CC[C@@H]4C[C@H](O)CC[C@]4(C)[C@H]3C[C@H](O)[C@]12C [Compound 1, (R)—N-(2-aminoethyl)-4-((3R,5R,8R,9S,10S,12S,13R,14S,17R)-3,12-dihydroxy-10,13-dimethylhexadecahydro-1H-cyclopenta[a]phenanthren-17-yl) pentanamida] | >128 µg/mL | 128 µg/mL (≈ 294 µM) | ≥128 µg/mL | 64 µg/mL (≈ 147 µM) | 64 µg/mL (≈ 147 µM) | 64 µg/mL (≈ 147 µM) | ≥128 µg/mL | >128 µg/mL | >128 µg/mL | 64 µg/mL (≈ 147 µM) | 128 µg/mL (≈ 294 µM) | 64 µg/mL (≈ 147 µM) | MIC (A. flavus F44; [3]): ≥128 µg/mL; MIC (A. niger ATCC 16404; [4]): 64 µg/mL (≈ 147 µM); MIC [1, 5]: 128 µg/mL (≈ 294 µM); MIC (C. glabrata DSY562): 64 µg/mL (≈ 147 µM); MIC (C. glabrata DSY565; [6]): 64 µg/mL (≈ 147 µM); MIC [2]: 32 µg/mL (≈ 73.6 µM); MIC (Fusarium oxysporum FF115; [7]): 128 µg/mL (≈ 294 µM); MIC (Fusarium solani FF125; [8]): 64 µg/mL (≈ 147 µM); MIC (Lichtheimia spp.; [9]): 64 µg/mL (≈ 147 µM); MIC (Mucor spp.; [10]): 64 µg/mL (≈ 147 µM); MIC (Scedosporium spp.): 64 µg/mL (≈ 147 µM); MIC (T. mentagrophytes FF7): 32 µg/mL (≈ 73.6 µM)
2 | OC(Cn1cncn1)(Cn1cncn1)c1ccc(F)cc1F [Fluconazole, reference compound] | >128 µg/mL | >128 µg/mL | >128 µg/mL | >128 µg/mL | >128 µg/mL | >32 µg/mL | >128 µg/mL | >128 µg/mL | >128 µg/mL | >128 µg/mL | 16 µg/mL (≈ 52.2 µM) | 32 µg/mL (≈ 104 µM) | MIC (A. flavus F44; Aspergillus flavus, F44, read-out: MIC): 128 µg/mL (≈ 418 µM); MIC (A. niger ATCC 16404; Aspergillus niger, ATCC16404, read-out: MIC): ≥ 128 µg/mL; MIC ([1]; Aspergillus fumigatus, ATCC204305, read-out: MIC): ≥ 128 µg/mL; MIC (C. glabrata DSY562; Nakaseomyces glabratus, read-out: MIC): 4 µg/mL (≈ 13.1 µM); MIC (C. glabrata DSY565; Nakaseomyces glabratus, DSY565): 128 µg/mL (≈ 418 µM); MIC ([2]; CECT1078, read-out: MIC): 8 µg/mL (≈ 26.1 µM); MIC (Fusarium oxysporum FF115; Fusarium oxysporum, FF115, read-out: MIC): 64 µg/mL (≈ 209 µM); MIC (Fusarium solani FF125; Fusarium solani, FF125, read-out: MIC): ≥ 128 µg/mL; MIC (Lichtheimia spp.; Lichtheimia, read-out: MIC): 64 µg/mL (≈ 209 µM); MIC (Mucor spp.; Mucor, read-out: MIC): > 128 µg/mL; MIC (Scedosporium spp.; read-out: MIC): 4 µg/mL (≈ 13.1 µM); MIC (T. mentagrophytes FF7; Trichophyton mentagrophytes, read-out: MIC): 8 µg/mL (≈ 26.1 µM)
